# Source: PubChem BioAssay AID2060900 (Molecular Pharmacology Branch, DTP, NCI, 2025)
# Where “and” joins values, the source holds several entries; their conditions need not be identical. Identical values can stand only once.
# Tested on: 521955-158-R2-J5-PDC complex spheroids, viability
# Assay: Anticancer human tumor 521955-158-R2-J5-PDC patient-derived pancreatic carcinoma cell line growth inhibition [RAS]
# Conditions: for viability, T/C: stronger effect = lower value
# Procedure, shortened: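 Multi-cell-type spheroids: tumor cells plus HUVEC endothelial cells and mesenchymal stem cells. RAS-pathway inhibitors were combined with targeted agents, each dosed in half-log steps down from clinical Cmax, or from 10 microM when Cmax was unknown.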
# [1] = curve of first compound, second compound 0.00316 µM
# [2] = curve of first compound, second compound 0.01 µM
# [3] = curve of first compound, second compound 0.0316 µM
# [4] = curve of first compound, second compound 0.1 µM
# [5] = curve of first compound, second compound 0.316 µM
# [6] = curve of first compound, second compound 1 µM
# [7] = second compound 0.00316 µM, first compound 0.0316 µM
# [8] = second compound 0.00316 µM, first compound 0.1 µM
# [9] = second compound 0.00316 µM, first compound 0.316 µM
# [10] = second compound 0.00316 µM, first compound 1 µM
# [11] = second compound 0.00316 µM, first compound 3.16 µM
# [12] = second compound 0.00316 µM, first compound 10 µM
# [13] = second compound 0.01 µM, first compound 0.0316 µM
# [14] = second compound 0.01 µM, first compound 0.1 µM
# [15] = second compound 0.01 µM, first compound 0.316 µM
# [16] = second compound 0.01 µM, first compound 1 µM
# [17] = second compound 0.01 µM, first compound 3.16 µM
# [18] = second compound 0.01 µM, first compound 10 µM
# [19] = second compound 0.0316 µM, first compound 0.0316 µM
# [20] = second compound 0.0316 µM, first compound 0.1 µM
# [21] = second compound 0.0316 µM, first compound 0.316 µM
# [22] = second compound 0.0316 µM, first compound 1 µM
# [23] = second compound 0.0316 µM, first compound 3.16 µM
# [24] = second compound 0.0316 µM, first compound 10 µM
# [25] = second compound 0.1 µM, first compound 0.0316 µM
# [26] = second compound 0.1 µM, first compound 0.1 µM
# [27] = second compound 0.1 µM, first compound 0.316 µM
# [28] = second compound 0.1 µM, first compound 1 µM
# [29] = second compound 0.1 µM, first compound 3.16 µM
# [30] = second compound 0.1 µM, first compound 10 µM
# [31] = second compound 0.316 µM, first compound 0.0316 µM
# [32] = second compound 0.316 µM, first compound 0.1 µM
# [33] = second compound 0.316 µM, first compound 0.316 µM
# [34] = second compound 0.316 µM, first compound 1 µM
# [35] = second compound 0.316 µM, first compound 3.16 µM
# [36] = second compound 0.316 µM, first compound 10 µM
# [37] = second compound 1 µM, first compound 0.0316 µM
# [38] = second compound 1 µM, first compound 0.1 µM
# [39] = second compound 1 µM, first compound 0.316 µM
# [40] = second compound 1 µM, first compound 1 µM
# [41] = second compound 1 µM, first compound 3.16 µM
# [42] = second compound 1 µM, first compound 10 µM
# 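Further: compound exposure lasted seven days before the viability read.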
# 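Wherever viability, T/C is given: spheroids also contain HUVEC endothelial cells and mesenchymal stem cells as stroma.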
smiles,measurement,setting,value
CC(C)n1nc(-c2ccc3oc(N)nc3c2)c2c(N)ncnc21,"viability, T/C",compound 0.000316 µM,94.1% [middle of 4 runs]
same,"viability, T/C",compound 0.001 µM,101% [middle of 4 runs]
same,"viability, T/C",compound 0.00316 µM,96.2% [middle of 4 runs]
same,"viability, T/C",compound 0.01 µM,65.3% [middle of 4 runs]
same,"viability, T/C",compound 0.0316 µM,44.3% [middle of 4 runs]
same,"viability, T/C",compound 0.1 µM,37% [middle of 4 runs]
same,IC50,curve of compound,21.3 nM [middle of 4 runs]
NC1c2ccccc2OC12CCN(c1cnc3c(N4CCCc5ncccc54)n[nH]c3n1)CC2 (stereo not given) + C=CC(=O)N1CCN(c2nc(OCC3CCCN3C)nc3c(F)c(-c4nc(N)cc(C)c4C(F)(F)F)c(Cl)cc23)C(C)C1,IC50,[1],> 10000 nM
same,IC50,[2],> 10000 nM
same,IC50,[3],> 10000 nM
same,IC50,[4],10000 nM
same,IC50,[5],> 10000 nM
same,IC50,[6],> 10000 nM
same,"viability, T/C",[7],69.6%
same,"viability, T/C",[8],69.4%
same,"viability, T/C",[9],64.4%
same,"viability, T/C",[10],61.5%
same,"viability, T/C",[11],54.8%
same,"viability, T/C",[12],59.3%
same,"viability, T/C",[13],68%
same,"viability, T/C",[14],68%
same,"viability, T/C",[15],62.1%
same,"viability, T/C",[16],63.2%
same,"viability, T/C",[17],53.7%
same,"viability, T/C",[18],65.6%
same,"viability, T/C",[19],65.8%
same,"viability, T/C",[20],79.6%
same,"viability, T/C",[21],69.1%
same,"viability, T/C",[22],61.5%
same,"viability, T/C",[23],65.3%
same,"viability, T/C",[24],51.8%
same,"viability, T/C",[25],73%
same,"viability, T/C",[26],79.8%
same,"viability, T/C",[27],55.1%
same,"viability, T/C",[28],57.7%
same,"viability, T/C",[29],51.8%
same,"viability, T/C",[30],58.8%
same,"viability, T/C",[31],75.4%
same,"viability, T/C",[32],59.2%
same,"viability, T/C",[33],58.1%
same,"viability, T/C",[34],59.5%
same,"viability, T/C",[35],46.1%
same,"viability, T/C",[36],60.5%
same,"viability, T/C",[37],70.3%
same,"viability, T/C",[38],61.4%
same,"viability, T/C",[39],54.7%
same,"viability, T/C",[40],69.6%
same,"viability, T/C",[41],60.4%
same,"viability, T/C",[42],58.3%
CC(C)NCC(C(=O)N1CCN(c2ncnc3c2C(C)CC3O)CC1)c1ccc(Cl)cc1 (stereo not given) + C#Cc1c(F)ccc2cc(O)cc(-c3ncc4c(N5CC6CCC(C5)N6)nc(OCC56CCCN5CC(F)C6)nc4c3F)c12,IC50,[3],49.1 nM
same,IC50,[4],< 31.6 nM
same,IC50,[5],< 31.6 nM
same,IC50,[6],< 31.6 nM
same,IC50,"curve of first compound, second compound 3.16 µM",< 31.6 nM
same,IC50,"curve of first compound, second compound 10 µM",< 31.6 nM
same,"viability, T/C",[19],55.1%
same,"viability, T/C",[20],40%
same,"viability, T/C",[21],36.9%
same,"viability, T/C",[22],15.6%
same,"viability, T/C",[23],10.7%
same,"viability, T/C",[24],10.4%
same,"viability, T/C",[25],45.7%
same,"viability, T/C",[26],54.2%
same,"viability, T/C",[27],26.8%
same,"viability, T/C",[28],13.4%
same,"viability, T/C",[29],8.3%
same,"viability, T/C",[30],8.31%
same,"viability, T/C",[31],43.6%
same,"viability, T/C",[32],43.2%
same,"viability, T/C",[33],29.1%
same,"viability, T/C",[34],11.7%
same,"viability, T/C",[35],7.83%
same,"viability, T/C",[36],6.31%
same,"viability, T/C",[37],43.8%
same,"viability, T/C",[38],45.2%
same,"viability, T/C",[39],26.9%
same,"viability, T/C",[40],12.7%
same,"viability, T/C",[41],6.2%
same,"viability, T/C",[42],4.69%
same,"viability, T/C","second compound 3.16 µM, first compound 0.0316 µM",43.4%
same,"viability, T/C","second compound 3.16 µM, first compound 0.1 µM",38.2%
same,"viability, T/C","second compound 3.16 µM, first compound 0.316 µM",22%
same,"viability, T/C","second compound 3.16 µM, first compound 1 µM",8.28%
same,"viability, T/C","second compound 3.16 µM, first compound 3.16 µM",5.14%
same,"viability, T/C","second compound 3.16 µM, first compound 10 µM",3.32%
same,"viability, T/C","second compound 10 µM, first compound 0.0316 µM",32.3%
same,"viability, T/C","second compound 10 µM, first compound 0.1 µM",27%
same,"viability, T/C","second compound 10 µM, first compound 0.316 µM",15.1%
same,"viability, T/C","second compound 10 µM, first compound 1 µM",7.44%
same,"viability, T/C","second compound 10 µM, first compound 3.16 µM",3.67%
same,"viability, T/C","second compound 10 µM, first compound 10 µM",1.98%
CC1(C)CCC(Nc2ncc(C(F)(F)F)c(-c3c[nH]c4c(P(C)(C)=O)c(C#N)ccc34)n2)CN1 (stereo not given),"viability, T/C",compound 0.000949 µM,104% [middle of 4 runs]
same,"viability, T/C",compound 0.003 µM,74.5% [middle of 4 runs]
same,"viability, T/C",compound 0.00949 µM,57.2% [middle of 4 runs]
same,"viability, T/C",compound 0.03 µM,48.7% [middle of 4 runs]
same,"viability, T/C",compound 0.0949 µM,52.8% [middle of 4 runs]
CC(Nc1ccc2c(c1)OCCn1cc(N3C(=O)OCC3C(F)F)nc1-2)C(N)=O (stereo not given) + C=CC(=O)N1CCN(c2nc(OCC3CCCN3C)nc3c(F)c(-c4nc(N)cc(C)c4C(F)(F)F)c(Cl)cc23)C(C)C1,IC50,[1],1320 nM
same,IC50,[2],419 nM
same,IC50,[3],634 nM
same,IC50,[4],833 nM
same,IC50,[5],261 nM
same,IC50,[6],180 nM
same,"viability, T/C",[7],66.7%
same,"viability, T/C",[8],70.9%
same,"viability, T/C",[9],43%
same,"viability, T/C",[10],64.7%
same,"viability, T/C",[11],38.4%
same,"viability, T/C",[12],19.8%
same,"viability, T/C",[13],64.1%
same,"viability, T/C",[14],58.3%
same,"viability, T/C",[15],43.5%
same,"viability, T/C",[16],52%
same,"viability, T/C",[17],35.5%
same,"viability, T/C",[18],22.9%
same,"viability, T/C",[19],56.9%
same,"viability, T/C",[20],71.3%
same,"viability, T/C",[21],43.5%
same,"viability, T/C",[22],53.3%
same,"viability, T/C",[23],30.4%
same,"viability, T/C",[24],19.7%
same,"viability, T/C",[25],67.3%
same,"viability, T/C",[26],54.8%
same,"viability, T/C",[27],67.6%
same,"viability, T/C",[28],45.6%
same,"viability, T/C",[29],28.8%
same,"viability, T/C",[30],19.4%
same,"viability, T/C",[31],72.4%
same,"viability, T/C",[32],90.1%
same,"viability, T/C",[33],43.8%
same,"viability, T/C",[34],42.7%
same,"viability, T/C",[35],33.3%
same,"viability, T/C",[36],22.5%
same,"viability, T/C",[37],124%
same,"viability, T/C",[38],53.4%
same,"viability, T/C",[39],48.9%
same,"viability, T/C",[40],35.4%
same,"viability, T/C",[41],33%
same,"viability, T/C",[42],19.8%
Cc1nc(N2CCC3(CC2)COC(C)C3N)c(CO)nc1Sc1ccnc(N)c1Cl (stereo not given),"viability, T/C",compound 0.0316 µM,85.6% [middle of 4 runs]
same,"viability, T/C",compound 0.1 µM,71.7% [middle of 4 runs]
same,"viability, T/C",compound 0.316 µM,69.2% [middle of 4 runs]
same,"viability, T/C",compound 1 µM,67.1% [middle of 4 runs]
same,"viability, T/C",compound 3.16 µM,67% [middle of 4 runs]
same,"viability, T/C",compound 10 µM,57% and 57.9% (2×) and 51.2%
same,IC50,curve of compound,> 10000 nM
